Test results: patent publication US8143243B2, “Compounds for the treatment of hepatitis C” (Bristol-Myers Squibb Company, priority 2007, dated 2012)
Where two headings read alike, the source gives them in different places.

Tests used:
HCV replicon cells = assay: HCV replicon FRET / luciferase assay; assay type: cell-based; conditions: Hepatitis C virus
Source text: FRET Assay Preparation. To perform the HCV FRET screening assay, 96-well cell culture plates were used. The FRET peptide (Anaspec, Inc.) (Taliani et al., Anal. Biochem. 1996, 240, 60-67) contains a fluorescence donor, EDANS, near one end of the peptide and an acceptor, DABCYL, near the other end. The fluorescence of the peptide is quenched by […] resonance energy transfer (RET) between the donor and the acceptor, but as the NS3 protease cleaves the peptide the products are released from RET quenching and the fluorescence of the donor becomes apparent. The assay reagent was made as follows: 5× cell Luciferase cell culture lysis reagent from Promega (#E153A) diluted to 1× with dH2O, NaCl added to 150 mM final, the FRET peptide diluted to 20 μM final from a 2 mM stock.
To prepare plates, HCV replicon cells, with or without a Renilla luciferase reporter gene, were trypsinized and placed into each well of a 96-well plate with titrated test compounds added in columns 3 through 12; columns 1 and 2 contained a control compound (HCV protease inhibitor), and the bottom row contained cells without compound. The plates were then placed in a CO2 incubator at 37° C.
Assays. Subsequent to addition of the test compounds described above (FRET Assay Preparation), at various times the plate was removed and Alamar blue solution (Trek Diagnostics, #00-100) was added per well as a measure of cellular toxicity. After reading in a Cytoflour 4000 instrument (PE Biosystems), plates were rinsed with PBS and then used for FRET assay by the addition of 30 ul of the FRET peptide assay reagent described above (FRET Assay Preparation) per well. The plate was then placed into the Cytoflour 4000 instrument which had been set to 340 excite/490 emission, automatic mode for 20 cycles and the plate read in a kinetic mode. Typically, the signal to noise using an endpoint analysis after the reads was at least three-fold. Alternatively, after Alamar blue reading, plates were rinsed with PBS, 50 ul of DMEM (high glucose) without phenol red was added and plates were then used for luciferase assay using the Promega Dual-Glo Luciferase Assay System.
Compound analysis was determined by quantification of the relative HCV replicon inhibition and the relative cytotoxicity values. To calculate cytoxicity values, the average Alamar Blue fluorescence signals from the control wells were set as 100% non-toxic. The individual signals in each of the compound test wells were then divided by the average control signal and multiplied by 100% to determine […]. To calculate the HCV replicon inhibition values, an average background value was obtained from the two wells containing the highest amount of HCV protease inhibitor at the end of the assay period. These numbers were similar to those obtained from naïve Huh-7 cells.
The background numbers were then subtracted from the average signal obtained from the control wells and this number was used as 100% activity. The individual signals in each of the compound test wells were then divided by the averaged control values after background subtraction and multiplied by 100% to determine percent activity. EC50 values for a protease inhibitor titration were calculated as the concentration which caused a 50% reduction in FRET or luciferase activity. The two numbers generated for the compound plate, percent cytoxicity and percent activity were used to determine compounds of interest for further analysis.

HCV NS5B = target: T1, HCV NS5B (Hepatitis C virus genotype 1b, UniProt Q9WMX2); assay: HCV NS5B RdRp enzyme assay (standard / modified); assay type: biochemical
T1 construct: The protein was expressed with an 18 amino acid C-terminal truncation to enhance the solubility; made in house; host or cells: E. coli BL21 (DE3)
T1 sequence (Q9WMX2 2420-2992): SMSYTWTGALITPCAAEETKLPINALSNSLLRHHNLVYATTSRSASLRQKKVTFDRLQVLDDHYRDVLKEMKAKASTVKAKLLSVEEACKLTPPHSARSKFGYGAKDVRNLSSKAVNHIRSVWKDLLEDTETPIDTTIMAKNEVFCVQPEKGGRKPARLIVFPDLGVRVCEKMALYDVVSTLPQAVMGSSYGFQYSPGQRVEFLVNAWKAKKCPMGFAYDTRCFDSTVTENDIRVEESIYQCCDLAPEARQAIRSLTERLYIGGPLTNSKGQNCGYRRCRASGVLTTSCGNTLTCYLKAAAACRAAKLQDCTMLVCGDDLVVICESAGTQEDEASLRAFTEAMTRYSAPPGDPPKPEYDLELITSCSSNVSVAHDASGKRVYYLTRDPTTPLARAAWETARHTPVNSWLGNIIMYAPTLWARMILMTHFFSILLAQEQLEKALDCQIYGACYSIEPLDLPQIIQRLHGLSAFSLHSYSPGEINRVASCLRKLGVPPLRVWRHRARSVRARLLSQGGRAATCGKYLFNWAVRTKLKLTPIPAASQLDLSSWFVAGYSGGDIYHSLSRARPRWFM
Protocol: HCV NS5B RdRp cloning, expression, and purification. The cDNA encoding the NS5B protein of HCV, genotype 1b, was cloned into the pET21a expression vector. The protein was expressed with an 18 amino acid C-terminal truncation to enhance the solubility. The E. coli competent cell line BL21 (DE3) was used for expression of the protein. Cultures were grown at 37° C. for ˜4 hours until the cultures reached an optical density of 2.0 at 600 nm. The cultures were cooled to 20° C. and induced with 1 mM IPTG. Fresh ampicillin was added to a final concentration of 50 μg/ml and the cells were grown overnight at 20° C.
Cell pellets (3 L) were lysed for purification to yield 15-24 mgs of purified NS5B. The lysis buffer consisted of 20 mM Tris-HCl, pH 7.4, 500 mM NaCl, 0.5% triton X-100, 1 mM DTT, 1 mM EDTA, 20% glycerol, 0.5 mg/ml lysozyme, 10 mM MgCl2, 15 ug/ml deoxyribonuclease I, and Complete TM protease inhibitor tablets (Roche). After addition of the lysis buffer, frozen cell pellets were resuspended using a tissue homogenizer. To reduce the viscosity of the sample, aliquots of the lysate were sonicated on ice using a microtip attached to a Branson sonicator. The sonicated lysate was centrifuged at 100,000×g for 1 hr at 4° C. and filtered through a 0.2 μm filter unit (Corning).
The protein was purified using three sequential chromatography steps: Heparin sepharose CL-6B, polyU sepharose 4B, and Hitrap SP sepharose (Pharmacia). The chromatography buffers were identical to the lysis buffer but contained no lysozyme, deoxyribonuclease I, MgCl2 or protease inhibitor and the NaCl concentration of the buffer was adjusted according to the requirements for charging the protein onto the column. Each column was eluted with a NaCl gradient which varied in length from 5-50 column volumes depending on the column type. After the final chromatography step, the resulting purity of the enzyme is >90% based on SDS-PAGE analysis. The enzyme was aliquoted and stored at −80° C.
Standard HCV NS5B RdRp enzyme assay. HCV RdRp genotype 1b assays were run in a final volume of 60 μl in 96 well plates (Costar 3912). The assay buffer is composed of 20 mM Hepes, pH 7.5, 2.5 mM KCl, 2.5 mM MgCl2, 1 mM DTT, 1.6 U RNAse inhibitor (Promega N2515), 0.1 mg/ml BSA (Promega R3961), and 2% glycerol. All compounds were serially diluted (3-fold) in DMSO and diluted further in water such that the final concentration of DMSO in the assay was 2%. HCV RdRp genotype 1b enzyme was used at a final concentration of 28 nM. A polyA template was used at 6 nM, and a biotinylated oligo-dT12 primer was used at 180 nM final concentration. Template was obtained commercially (Amersham 27-4110). Biotinylated primer was prepared by Sigma Genosys. 3H-UTP was used at 0.6 μCi (0.29 μM total UTP). Reactions were initiated by the addition of enzyme, incubated at 30° C. for 60 min, and stopped by adding 25 μl of 50 mM EDTA containing SPA beads (4 μg/μl, Amersham RPNQ 0007). Plates were read on a Packard Top Count NXT after >1 hr incubation at room temperature.
Modified HCV NS5B RdRp enzyme assay. A modified enzyme assay was performed essentially as described for the standard enzyme assay except for the following: The biotinylated oligo dT12 primer was precaptured on streptavidin-coated SPA beads by mixing primer and beads in assay buffer and incubating at room temperature for one hour. Unbound primer was removed after centrifugation. The primer-bound beads were resuspended in 20 mM Hepes buffer, pH 7.5 and used in the assay at final concentrations of 20 nM primer and 0.67 μg/μl beads. Order of addition in the assay: enzyme (14 nM) was added to diluted compound followed by the addition of a mixture of template (0.2 nM), 3H-UTP (0.6 μCi, 0.29 μM), and primer-bound beads, to initiate the reaction; concentrations given are final. Reactions were allowed to proceed for 4 hours at 30° C.
IC50 values for compounds were determined using seven different [I]. […]

[1] = HCV replicon cells, FRET or luciferase readout, read-out: EC50
[2] = HCV RdRp genotype 1b enzyme, read-out: IC50

SMILES	EC50 (HCV replicon cells) [µM]	IC50 (HCV NS5B) [µM]	EC50 (HCV replicon cells; [1]) [µM]	IC50 (HCV NS5B; [2]) [µM]
CCC(C)S(=O)(=O)NC(=O)c1ccc2c(C3CCCCC3)c3n(c2c1)CC(c1c(C(=O)N2C4COCC2COC4)cnn1C)=Cc1cc(OC)ccc1-3 (stereo not drawn)	0.001 to 0.5	0.001 to 0.5		
COc1ccc2c(c1)C=C(c1c(C(=O)N3C4CCC3CN(C)C4)cnn1C)Cn1c-2c(C2CCCCC2)c2ccc(C(=O)NS(=O)(=O)CC(C)C)cc21	0.001 to 0.5	0.001 to 0.5		
COc1ccc2c(c1)C=C(c1c(C(=O)N3C[C@@H](C)N(C)[C@@H](C)C3)cnn1C(C)C)Cn1c-2c(C2CCCCC2)c2ccc(C(=O)NS(=O)(=O)CC(C)C)cc21			0.001 to 0.5	0.001 to 0.5
COc1ccc2c(c1)C=C(c1c(C(=O)N3C[C@@H](C)O[C@@H](C)C3)c(C(F)(F)F)nn1C)Cn1c-2c(C2CCCCC2)c2ccc(C(=O)NS(=O)(=O)C(C)C)cc21			0.001 to 0.5	< 0.02
COc1ccc2c(c1)C=C(c1c(C(=O)N3C[C@@H](C)N(C)[C@@H](C)C3)c(C(F)(F)F)nn1C)Cn1c-2c(C2CCCCC2)c2ccc(C(=O)NS(=O)(=O)C(C)C)cc21			0.001 to 0.5	0.001 to 0.5
COc1ccc2c(c1)C=C(c1c(C(=O)N3C4CCCC3COC4)cnn1C)Cn1c-2c(C2CCCCC2)c2ccc(C(=O)NS(=O)(=O)C3CCC3)cc21	0.001 to 0.5	0.001 to 0.5		
COc1ccc2c(c1)C=C(c1ocnc1C(=O)O)Cn1c-2c(C2CCCCC2)c2ccc(C(=O)OC(C)(C)C)cc21			> 0.04	> 0.04
COc1ccc2c(c1)C=C(c1c(C(=O)O)ccn1C(C)C)Cn1c-2c(C2CCCCC2)c2ccc(C(=O)NS(=O)(=O)C(C)C)cc21			> 0.5	0.001 to 0.5
COc1ccc2c(c1)C=C(c1c(C(=O)N3C[C@@H]4C[C@H]3CO4)cnn1CC(F)(F)F)Cn1c-2c(C2CCCCC2)c2ccc(C(=O)NS(=O)(=O)C(C)C)cc21			0.001 to 0.5	0.001 to 0.5
COc1ccc2c(c1)C=C(c1c(C(=O)N3CCOCC3)c(C)nn1C)Cn1c-2c(C2CCCCC2)c2ccc(C(=O)NS(=O)(=O)N(C)C)cc21			0.001 to 0.5	0.001 to 0.5
CCn1ncc(C(=O)N2CCOCC2)c1C1=Cc2cc(OC)ccc2-c2c(C3CCCCC3)c3ccc(C(=O)NS(=O)(=O)C(C)C)cc3n2C1			0.001 to 0.5	0.001 to 0.5
COc1ccc2c(c1)C=C(c1c(C(=O)N3CCN4CCCC4C3)cnn1C)Cn1c-2c(C2CCCCC2)c2ccc(C(=O)NS(=O)(=O)C3CCC3)cc21 (stereo not drawn)			0.001 to 0.5	0.001 to 0.5
COc1ccc2c(c1)C=C(c1c(C(=O)N3C[C@@H](C)O[C@@H](C)C3)ccn1C(C)C)Cn1c-2c(C2CCCCC2)c2ccc(C(=O)NS(=O)(=O)C(C)C)cc21			0.001 to 0.5	0.001 to 0.5
COc1ccc2c(c1)C=C(c1c(C(=O)N3CCN4CCCC4C3)cnn1C)Cn1c-2c(C2CCCCC2)c2ccc(C(=O)NS(=O)(=O)N3CCOCC3)cc21 (stereo not drawn)			0.001 to 0.5	0.001 to 0.5
COc1ccc2c(c1)C=C(c1c(C(=O)N3CC4CCC(C3)O4)cnn1C(C)C)Cn1c-2c(C2CCCCC2)c2ccc(C(=O)NS(=O)(=O)C(C)C)cc21			0.001 to 0.5	0.001 to 0.5
CCn1nc(C)c(C2=Cc3cc(OC)ccc3-c3c(C4CCCCC4)c4ccc(C(=O)NS(=O)(=O)C(C)C)cc4n3C2)c1C(=O)N1C[C@@H](C)O[C@@H](C)C1			0.001 to 0.5	0.001 to 0.5
COc1ccc2c(c1)C=C(c1c(C(=O)N3CCOCC3)c(C)nn1C(C)C)Cn1c-2c(C2CCCCC2)c2ccc(C(=O)NS(=O)(=O)C(C)C)cc21			0.001 to 0.5	0.001 to 0.5
COc1ccc2c(c1)C=C(c1c(C(=O)N3C[C@H]4CC[C@@H](C3)N4C)cnn1C(C)C)Cn1c-2c(C2CCCCC2)c2ccc(C(=O)NS(=O)(=O)CC(C)C)cc21	0.001 to 0.5	0.001 to 0.5		
COc1ccc2c(c1)C=C(c1c(C(=O)N3CCOCC3)cnn1C(C)C)Cn1c-2c(C2CCCCC2)c2ccc(C(=O)NS(=O)(=O)N(C)C)cc21			0.001 to 0.5	0.001 to 0.5
COc1ccc2c(c1)C=C(c1c(C(=O)N(C)CCN(C)C)cnn1C)Cn1c-2c(C2CCCCC2)c2ccc(C(=O)NS(=O)(=O)N3CCOCC3)cc21			0.001 to 0.5	0.001 to 0.5
COC(=O)c1ncoc1C1=Cc2cc(OC)ccc2-c2c(C3CCCCC3)c3ccc(C(=O)OC(C)(C)C)cc3n2C1			> 0.04	> 0.04
COc1ccc2c(c1)C=C(c1c(C(=O)N3CCN(C)CC3)cnn1C)Cn1c-2c(C2CCCCC2)c2ccc(C(=O)NS(=O)(=O)C(C)C)cc21			0.001 to 0.5	0.001 to 0.5
COc1ccc2c(c1)C=C(c1ocnc1C(=O)N1CCOCC1)Cn1c-2c(C2CCCCC2)c2ccc(C(=O)O)cc21			0.001 to 0.5	0.001 to 0.5
CCN1C[C@@H]2C[C@H]1CN2C(=O)c1c(C)nn(CC)c1C1=Cc2cc(OC)ccc2-c2c(C3CCCCC3)c3ccc(C(=O)NS(=O)(=O)C(C)C)cc3n2C1			0.001 to 0.5	0.001 to 0.5
CCC(C)S(=O)(=O)NC(=O)c1ccc2c(C3CCCCC3)c3n(c2c1)CC(c1c(C(=O)N2C4CCC2CN(C)C4)cnn1C)=Cc1cc(OC)ccc1-3 (stereo not drawn)	0.001 to 0.5	0.001 to 0.5		
COc1ccc2c(c1)C=C(c1c(C(=O)N3CCC(N(C)C)C3)cnn1C)Cn1c-2c(C2CCCCC2)c2ccc(C(=O)NS(=O)(=O)C(C)C)cc21 (stereo not drawn)			0.001 to 0.5	0.001 to 0.5
COc1ccc2c(c1)C=C(c1c(C(=O)N3C4CCC3CC4)cnn1C)Cn1c-2c(C2CCCCC2)c2ccc(C(=O)NS(=O)(=O)N3CCOCC3)cc21	0.001 to 0.5	0.001 to 0.5		
